From patent publication US20120164575A1, “CYCLIC COMPOUND, MANUFACTURING METHOD THEREFOR, RADIATION-SENSITIVE COMPOSITION, AND METHOD FOR FORMING A RESIST PATTERN” (MITSUBISHI GAS CHEMICAL COMPANY, INC., priority 2009, published 2012)

Experiment: Solubility of compound in safety solvent
Format: physicochemical
Settings: for solubility in CHN: cyclohexanone (CHN); for solubility in PGME: propylene glycol monomethyl ether (PGME); for solubility in PGMEA: propylene glycol monomethyl ether acetate (PGMEA)
Method: The compounds obtained in Synthesis Examples 1 to 6 and Synthesis 1 to 4 were evaluated for the solubility in propylene glycol monomethyl ether acetate (PGMEA), propylene glycol monomethyl ether (PGME) and cyclohexanone (CHN).
A: 4.0 wt %≦dissolved amount
B: 1.0 wt %≦dissolved amount<4.0 wt %
C: dissolved amount<1.0 wt %

SMILES	solubility in CHN	solubility in PGME	solubility in PGMEA
CC(C)c1ccc(C2c3cc(c(O)cc3O)C(c3ccc(C(C)C)cc3)c3cc(c(O)cc3O)C(c3ccc(C(C)C)cc3)c3cc(c(O)cc3O)C(c3ccc(C(C)C)cc3)c3cc2c(O)cc3O)cc1 (stereo not drawn) [CR-1A]	B (1.0 wt %≦dissolved amount<4.0 wt %)	B (1.0 wt %≦dissolved amount<4.0 wt %)	C (dissolved amount<1.0 wt %)
CC(C)Cc1ccc(C2c3cc(c(O)cc3O)C(c3ccc(CC(C)C)cc3)c3cc(c(O)cc3O)C(c3ccc(CC(C)C)cc3)c3cc(c(O)cc3O)C(c3ccc(CC(C)C)cc3)c3cc2c(O)cc3O)cc1 (stereo not drawn) [CR-2A]	B (1.0 wt %≦dissolved amount<4.0 wt %)	C (dissolved amount<1.0 wt %)	C (dissolved amount<1.0 wt %)
Oc1cc(O)c2cc1C(c1ccc(-c3ccccc3)cc1)c1cc(c(O)cc1O)C(c1ccc(-c3ccccc3)cc1)c1cc(c(O)cc1O)C(c1ccc(-c3ccccc3)cc1)c1cc(c(O)cc1O)C2c1ccc(-c2ccccc2)cc1 (stereo not drawn) [CR-3A]	B (1.0 wt %≦dissolved amount<4.0 wt %)	C (dissolved amount<1.0 wt %)	C (dissolved amount<1.0 wt %)
Oc1cc(O)c2cc1C(c1ccc(C3CCCCC3)cc1)c1cc(c(O)cc1O)C(c1ccc(C3CCCCC3)cc1)c1cc(c(O)cc1O)C(c1ccc(C3CCCCC3)cc1)c1cc(c(O)cc1O)C2c1ccc(C2CCCCC2)cc1 (stereo not drawn) [CR-4A]	B (1.0 wt %≦dissolved amount<4.0 wt %)	B (1.0 wt %≦dissolved amount<4.0 wt %)	C (dissolved amount<1.0 wt %)
